Test results: PubChem BioAssay AID2060488 (Molecular Pharmacology Branch, DTP, NCI, 2025)

System: 966289-007-R4-J1-PDC complex spheroid viability
Assay: Anticancer human tumor 966289-007-R4-J1-PDC patient-derived pancreatic adenocarcinoma cell line growth inhibition [GQUAD]
Details: for IC50: curve of first compound; for viability, T/C: stronger effect = lower value
Procedure, shortened: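 Viability of tumor cells grown as complex spheroids with endothelial and stromal cells, exposed to drug combinations. Top concentration at or near clinical Cmax (else 10 microM), diluted in half-log increments.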

[1] = second compound 0.0316 µM, first compound 0.0316 µM
[2] = second compound 0.0316 µM, first compound 0.316 µM
[3] = second compound 0.1 µM, first compound 0.0316 µM
[4] = second compound 0.1 µM, first compound 0.316 µM
[5] = second compound 0.316 µM, first compound 0.0316 µM
[6] = second compound 0.316 µM, first compound 0.316 µM
[7] = second compound 1 µM, first compound 0.0316 µM
[8] = second compound 1 µM, first compound 0.316 µM
[9] = second compound 3.16 µM, first compound 0.0316 µM
[10] = second compound 3.16 µM, first compound 0.316 µM
[11] = second compound 10 µM, first compound 0.0316 µM
[12] = second compound 10 µM, first compound 0.316 µM
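Note: spheroids exposed to the agents for seven days before readout.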
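Throughout, for viability, T/C: percent viability relative to DMSO vehicle control wells taken as 100%.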

Cc1[nH]c2ccccc2c1CCNCc1ccc(/C=C/C(=O)NO)cc1 + CN(C)c1ccc(Nc2c3ccc(NC(=O)CCN4CCCC4)cc3nc3cc(NC(=O)CCN4CCCC4)ccc23)cc1
IC50 (second compound 0.0316 µM): 78 nM
IC50 (second compound 0.1 µM): 68.4 nM
IC50 (second compound 0.316 µM): 75 nM
IC50 (second compound 1 µM): 67.5 nM
IC50 (second compound 3.16 µM): 54.3 nM
IC50 (second compound 10 µM): 46.9 nM
viability, T/C (second compound 0.0316 µM, first compound 0.000999 µM): 106%
viability, T/C (second compound 0.0316 µM, first compound 0.00316 µM): 95.3%
viability, T/C (second compound 0.0316 µM, first compound 0.00999 µM): 109%
viability, T/C [1]: 85.8%
viability, T/C (second compound 0.0316 µM, first compound 0.0999 µM): 40.2%
viability, T/C [2]: 5.05%
viability, T/C (second compound 0.1 µM, first compound 0.000999 µM): 106%
viability, T/C (second compound 0.1 µM, first compound 0.00316 µM): 102%
viability, T/C (second compound 0.1 µM, first compound 0.00999 µM): 109%
viability, T/C [3]: 87.8%
viability, T/C (second compound 0.1 µM, first compound 0.0999 µM): 31.4%
viability, T/C [4]: 4.54%
viability, T/C (second compound 0.316 µM, first compound 0.000999 µM): 94.7%
viability, T/C (second compound 0.316 µM, first compound 0.00316 µM): 97.8%
viability, T/C (second compound 0.316 µM, first compound 0.00999 µM): 109%
viability, T/C [5]: 101%
viability, T/C (second compound 0.316 µM, first compound 0.0999 µM): 33.1%
viability, T/C [6]: 3.99%
viability, T/C (second compound 1 µM, first compound 0.000999 µM): 98.9%
viability, T/C (second compound 1 µM, first compound 0.00316 µM): 100%
viability, T/C (second compound 1 µM, first compound 0.00999 µM): 108%
viability, T/C [7]: 98.2%
viability, T/C (second compound 1 µM, first compound 0.0999 µM): 25%
viability, T/C [8]: 3.89%
viability, T/C (second compound 3.16 µM, first compound 0.000999 µM): 98.3%
viability, T/C (second compound 3.16 µM, first compound 0.00316 µM): 104%
viability, T/C (second compound 3.16 µM, first compound 0.00999 µM): 104%
viability, T/C [9]: 81%
viability, T/C (second compound 3.16 µM, first compound 0.0999 µM): 14.8%
viability, T/C [10]: 1.84%
viability, T/C (second compound 10 µM, first compound 0.000999 µM): 100%
viability, T/C (second compound 10 µM, first compound 0.00316 µM): 104%
viability, T/C (second compound 10 µM, first compound 0.00999 µM): 108%
viability, T/C [11]: 74.8%
viability, T/C (second compound 10 µM, first compound 0.0999 µM): 2.99%
viability, T/C [12]: 0.49%

O=C(NO)c1cnc(N2CCN(S(=O)(=O)c3ccc4ccccc4c3)CC2)nc1 + CN(C)c1ccc(Nc2c3ccc(NC(=O)CCN4CCCC4)cc3nc3cc(NC(=O)CCN4CCCC4)ccc23)cc1
IC50 (second compound 0.0316 µM): 363 nM
IC50 (second compound 0.1 µM): 431 nM
IC50 (second compound 0.316 µM): 343 nM
IC50 (second compound 1 µM): 264 nM
IC50 (second compound 3.16 µM): 279 nM
IC50 (second compound 10 µM): 191 nM
viability, T/C [1]: 112%
viability, T/C (second compound 0.0316 µM, first compound 0.1 µM): 107%
viability, T/C [2]: 55.2%
viability, T/C (second compound 0.0316 µM, first compound 1 µM): 9.1%
viability, T/C (second compound 0.0316 µM, first compound 3.16 µM): 1.51%
viability, T/C (second compound 0.0316 µM, first compound 10 µM): 0.76%
viability, T/C [3]: 105%
viability, T/C (second compound 0.1 µM, first compound 0.1 µM): 106%
viability, T/C [4]: 64.2%
viability, T/C (second compound 0.1 µM, first compound 1 µM): 10.4%
viability, T/C (second compound 0.1 µM, first compound 3.16 µM): 1.4%
viability, T/C (second compound 0.1 µM, first compound 10 µM): 0.24%
viability, T/C [5]: 106%
viability, T/C (second compound 0.316 µM, first compound 0.1 µM): 108%
viability, T/C [6]: 52.9%
viability, T/C (second compound 0.316 µM, first compound 1 µM): 7.46%
viability, T/C (second compound 0.316 µM, first compound 3.16 µM): 1.19%
viability, T/C (second compound 0.316 µM, first compound 10 µM): 0.23%
viability, T/C [7]: 100%
viability, T/C (second compound 1 µM, first compound 0.1 µM): 108%
viability, T/C [8]: 39.9%
viability, T/C (second compound 1 µM, first compound 1 µM): 8.91%
viability, T/C (second compound 1 µM, first compound 3.16 µM): 1.33%
viability, T/C (second compound 1 µM, first compound 10 µM): 0.27%
viability, T/C [9]: 97.1%
viability, T/C (second compound 3.16 µM, first compound 0.1 µM): 107%
viability, T/C [10]: 43.6%
viability, T/C (second compound 3.16 µM, first compound 1 µM): 5.36%
viability, T/C (second compound 3.16 µM, first compound 3.16 µM): 0.77%
viability, T/C (second compound 3.16 µM, first compound 10 µM): 0.21%
viability, T/C [11]: 101%
viability, T/C (second compound 10 µM, first compound 0.1 µM): 106%
viability, T/C [12]: 7.93%
viability, T/C (second compound 10 µM, first compound 1 µM): 1.01%
viability, T/C (second compound 10 µM, first compound 3.16 µM): 0.44%
viability, T/C (second compound 10 µM, first compound 10 µM): 0.14%
